Measurements from ChEMBL document CHEMBL1212746, “Assessment of the in vitro kinetic activity of caspofungin against Candida glabrata” (2010).
Converted amounts (≈) assume the structure as drawn.

Legend:
Nakaseomyces glabratus [1] = test: Antifungal activity against Candida glabrata assessed as fungicidal activity by broth microdilution assay; assay type: functional
Nakaseomyces glabratus [2] = test: Antifungal activity against Candida glabrata by broth microdilution assay; assay type: functional
Nakaseomyces glabratus [3] = test: Antifungal activity against fluconazole-resistant Candida glabrata isolate 01 by broth microdilution assay; assay type: functional
Nakaseomyces glabratus [4] = test: Antifungal activity against Candida glabrata assessed as time to kill at 4 ug/ml; assay type: functional
Nakaseomyces glabratus [5] = test: Antifungal activity against Candida glabrata assessed as time to kill at 1 ug/ml; assay type: functional
Nakaseomyces glabratus [6] = test: Antifungal activity against fluconazole-resistant Candida glabrata isolate 04 by broth microdilution assay; assay type: functional
Nakaseomyces glabratus [7] = test: Antifungal activity against fluconazole-resistant Candida glabrata isolate 05 by broth microdilution assay; assay type: functional
Nakaseomyces glabratus [8] = test: Antifungal activity against fluconazole-susceptible Candida glabrata isolate 03 in presence of fluconazole by broth microdilution assay
Nakaseomyces glabratus [9] = test: Antifungal activity against fluconazole-resistant Candida glabrata isolate 01 in presence of fluconazole by broth microdilution assay; assay type: functional
Nakaseomyces glabratus [10] = test: Antifungal activity against fluconazole-resistant Candida glabrata isolate 05 in presence of amphotericin B by broth microdilution assay
Nakaseomyces glabratus [11] = test: Antifungal activity against fluconazole-resistant Candida glabrata isolate 03 by broth microdilution assay; assay type: functional
Nakaseomyces glabratus [12] = test: Antifungal activity against fluconazole-resistant Candida glabrata isolate 02 in presence of voriconazole by broth microdilution assay
Nakaseomyces glabratus [13] = test: Antifungal activity against fluconazole-resistant Candida glabrata isolate 02 by broth microdilution assay; assay type: functional
Nakaseomyces glabratus [14] = test: Antifungal activity against fluconazole-resistant Candida glabrata isolate 04 in presence of fluconazole by broth microdilution assay; assay type: functional

SMILES | MFC (Nakaseomyces glabratus [1]) | MIC50 (Nakaseomyces glabratus [2]) | MIC90 (Nakaseomyces glabratus [2]) | MIC (Nakaseomyces glabratus [3]) | Time (Nakaseomyces glabratus [4]) | Time (Nakaseomyces glabratus [5]) | MIC (Nakaseomyces glabratus [6]) | MIC (Nakaseomyces glabratus [7]) | fractional inhibitory concentration index (FICI) (Nakaseomyces glabratus [8]) | fractional inhibitory concentration index (FICI) (Nakaseomyces glabratus [9]) | fractional inhibitory concentration index (FICI) (Nakaseomyces glabratus [10]) | MIC (Nakaseomyces glabratus [11]) | fractional inhibitory concentration index (FICI) (Nakaseomyces glabratus [12]) | MIC (Nakaseomyces glabratus [13]) | fractional inhibitory concentration index (FICI) (Nakaseomyces glabratus [14])
C[C@@H]1[C@H](O)[C@@H](C)/C=C/C=C/C=C/C=C/C=C/C=C/C=C/[C@H](O[C@@H]2O[C@H](C)[C@@H](O)[C@H](N)[C@@H]2O)C[C@@H]2O[C@](O)(C[C@@H](O)C[C@@H](O)[C@H](O)CC[C@@H](O)C[C@@H](O)CC(=O)O[C@H]1C)C[C@H](O)[C@H]2C(=O)O [AMPHOTERICIN B] | 1 µg/mL | 0.5 µg/mL (≈ 0.541 µM) | 1 µg/mL (≈ 1.08 µM) | – | – | – | – | – | – | – | – | – | – | – | –
CC[C@H](C)C[C@H](C)CCCCCCCCC(=O)N[C@H]1C[C@@H](O)[C@@H](NCCN)NC(=O)[C@@H]2[C@@H](O)CCN2C(=O)[C@H]([C@H](O)CCN)NC(=O)[C@H]([C@H](O)[C@@H](O)c2ccc(O)cc2)NC(=O)[C@@H]2C[C@@H](O)CN2C(=O)[C@H]([C@@H](C)O)NC1=O [CASPOFUNGIN] | 4 µg/mL | 0.5 µg/mL (≈ 0.457 µM) | 2 µg/mL (≈ 1.83 µM) | 0.5 µg/mL (≈ 0.457 µM) | 2 h | 4 h | 0.5 µg/mL (≈ 0.457 µM) | 0.25 µg/mL (≈ 0.229 µM) | 0.185 | <0.5 | 1.06 | 0.5 µg/mL (≈ 0.457 µM) | 0.56 | 0.25 µg/mL (≈ 0.229 µM) | 0.5625
OC(Cn1cncn1)(Cn1cncn1)c1ccc(F)cc1F [FLUCONAZOLE] | > 128 µg/mL | 4 µg/mL (≈ 13.1 µM) | 32 µg/mL (≈ 104 µM) | 128 µg/mL (≈ 418 µM) | – | – | 32 µg/mL (≈ 104 µM) | 1 µg/mL (≈ 3.27 µM) | – | – | – | 2 µg/mL (≈ 6.53 µM) | – | 64 µg/mL (≈ 209 µM) | –
C[C@@H](c1ncncc1F)[C@](O)(Cn1cncn1)c1ccc(F)cc1F [VORICONAZOLE] | > 32 µg/mL | 0.125 µg/mL (≈ 0.358 µM) | 1 µg/mL (≈ 2.86 µM) | – | – | – | – | – | – | – | – | – | – | – | –
